Reference: PMC9334755 (Cancer Biology & Medicine, 2021)
Read-outs that look alike come from different tables or passages of the source.

What was measured:
[1] = molecular target: JAK3 (Homo sapiens, UniProt P52333); assay: HTRF kinase assay, JAK3
Description: Homogeneous time-resolved fluorescence (HTRF) assays were performed with a HTRF® KinEASE™-TK kit (Trevigen).

[2] = system: Caco-2; details: human
From the text: protein kinases Beagle dog PK
Kinase Inhibition (%) Kinase Inhibition (%) IV Oral
Species Plasma protein binding (%)
Tcells, and B-cell lymphoma
Compound Caco-2 permeability assay
(§1) (1 picture or pasted object on this page, not shown here)

[3] = molecular target: FYN (Homo sapiens, UniProt P06241); assay: Protein kinase panel at 1 µM, FYN; type: biochemical
[4] = molecular target: FGFR3 (Homo sapiens, UniProt P22607); assay: Protein kinase panel at 1 µM, FGFR3; type: biochemical
[5] = molecular target: YES1 (Homo sapiens, UniProt P07947); assay: Protein kinase panel at 1 µM, YES1; type: biochemical
[6] = molecular target: CYP2C8 (Homo sapiens, UniProt P10632); type: in vitro ADME
From the text: (§2) Cancer Biol Med Vol 19, No 7 July 2022 3
(§3) Table S8 Inhibition of CYP isozymes by SY-1530
(§4) Table S9 Preclinical safety of SY-1530
(§5) Group Single-dose toxicity Multiple-dose toxicity
(§6) Animal Rat Beagle dog Rat Beagle dog
as §1

[7] = molecular target: CYP1A2 (Homo sapiens, UniProt P05177); type: in vitro ADME
From the text: as §2, §3, §4, §5, §6, §1

[8] = molecular target: CYP2C9 (Homo sapiens, UniProt P11712); type: in vitro ADME
From the text: as §2, §3, §4, §5, §6, §1

[9] = system: human peripheral T cells; assay: CD69 up-regulation in T cells after anti-CD3/CD28 stimulation; type: cell-based
Description: CD19^+ B (>80% purity) and CD3^+ T (>90% purity) cells were purified with human B cell enrichment cocktail and human T cell enrichment cocktail (Stem Cell Technology), respectively. Cells were seeded on 12-well plates and incubated with different concentrations of BTK inhibitors for 1 h. B cells were stimulated with 50 µg/mL anti-human IgM F(ab′)2, and T cells were stimulated with 50 µg/mL anti-CD3/CD28 beads overnight. In the washout groups, the cell medium containing the indicated inhibitors was replaced with fresh medium before stimulation. Then cells were then incubated with anti-human CD69 for 1 h and analyzed with a Guava flow cytometer.
Figure 4 SY-1530 blocks B-cell receptor signaling and induces apoptosis. (A–D) Human B and T cells were purified and incubated with different concentrations of BTK inhibitors for 1 h. B cells were stimulated with 50 μg/mL anti-human IgM F(ab′)2, and T cells were stimulated with 50 μg/mL anti-CD3/CD28 beads overnight directly or after washout of BTK inhibitors before stimulation. The percentage of CD69 positive cells was analyzed by flow cytometry. Data are shown as the mean ± SEM (n = 3). Statistical analysis was performed with Student’s t-test (*P < 0.05, **P < 0.01, ***P < 0.001). (E) Pfeiffer cells and Romas cells were preincubated with different concentrations of compounds for 1 h, washed with PBS, and then stimulated with anti-IgM/anti-IgG (10 μg/mL) for 10 min. Cells were lysed and analyzed by Western blot with the indicated antibodies. (F) Pfeiffer cells were treated with various concentrations of SY-1530 for 24 h. The cells were stained with both PE-Annexin and 7-AAD and analyzed by flow cytometry. Data are shown as the mean ± SEM (n = 3). Statistical analysis was performed with Student’s t-test (*P < 0.05, **P < 0.01). (G) Pfeiffer cells were incubated with BTK inhibitors in the presence of z-VAD-fmk (caspase inhibitor) or DMSO for 24 h. Cells were lysed and analyzed with specific antibodies.

[10] = molecular target: BTK (Homo sapiens, UniProt Q06187); assay: LC-MS/MS of free inhibitor after incubation with BTK; type: binding
Description: In addition, after incubation of BTK with the inhibitors for 4 h, we performed liquid chromatography-tandem mass spectrometry (LC-MS/MS) to detect the abundance of the inhibitors.
(A) The compounds were incubated with BTK for 2 h, after which HTRF assays were performed with dilution of the mixture. The reactions were stopped at different time points. Data are shown as the mean ± SEM. (B) The content of the compounds was measured with LC-MS/MS after incubation with BTK for 4 h. Data are shown as the mean ± SEM (n = 3). Statistical analysis was performed with Student’s t-test (***P < 0.001). […] Cells were lysed and analyzed by Western blot and fluorescent gel scanning.
Data are shown as the mean ± SEM. […] Data are shown as the mean ± SEM of 3 independent experiments. Statistical analysis was performed with Student’s t-test (**P < 0.01, ***P < 0.001). […] Cells were lysed and then analyzed by Western blot and fluorescent gel scanning. […] Cells were lysed and analyzed by Western blot and fluorescent gel scanning.

JAK3, sequence (P52333 whole entry): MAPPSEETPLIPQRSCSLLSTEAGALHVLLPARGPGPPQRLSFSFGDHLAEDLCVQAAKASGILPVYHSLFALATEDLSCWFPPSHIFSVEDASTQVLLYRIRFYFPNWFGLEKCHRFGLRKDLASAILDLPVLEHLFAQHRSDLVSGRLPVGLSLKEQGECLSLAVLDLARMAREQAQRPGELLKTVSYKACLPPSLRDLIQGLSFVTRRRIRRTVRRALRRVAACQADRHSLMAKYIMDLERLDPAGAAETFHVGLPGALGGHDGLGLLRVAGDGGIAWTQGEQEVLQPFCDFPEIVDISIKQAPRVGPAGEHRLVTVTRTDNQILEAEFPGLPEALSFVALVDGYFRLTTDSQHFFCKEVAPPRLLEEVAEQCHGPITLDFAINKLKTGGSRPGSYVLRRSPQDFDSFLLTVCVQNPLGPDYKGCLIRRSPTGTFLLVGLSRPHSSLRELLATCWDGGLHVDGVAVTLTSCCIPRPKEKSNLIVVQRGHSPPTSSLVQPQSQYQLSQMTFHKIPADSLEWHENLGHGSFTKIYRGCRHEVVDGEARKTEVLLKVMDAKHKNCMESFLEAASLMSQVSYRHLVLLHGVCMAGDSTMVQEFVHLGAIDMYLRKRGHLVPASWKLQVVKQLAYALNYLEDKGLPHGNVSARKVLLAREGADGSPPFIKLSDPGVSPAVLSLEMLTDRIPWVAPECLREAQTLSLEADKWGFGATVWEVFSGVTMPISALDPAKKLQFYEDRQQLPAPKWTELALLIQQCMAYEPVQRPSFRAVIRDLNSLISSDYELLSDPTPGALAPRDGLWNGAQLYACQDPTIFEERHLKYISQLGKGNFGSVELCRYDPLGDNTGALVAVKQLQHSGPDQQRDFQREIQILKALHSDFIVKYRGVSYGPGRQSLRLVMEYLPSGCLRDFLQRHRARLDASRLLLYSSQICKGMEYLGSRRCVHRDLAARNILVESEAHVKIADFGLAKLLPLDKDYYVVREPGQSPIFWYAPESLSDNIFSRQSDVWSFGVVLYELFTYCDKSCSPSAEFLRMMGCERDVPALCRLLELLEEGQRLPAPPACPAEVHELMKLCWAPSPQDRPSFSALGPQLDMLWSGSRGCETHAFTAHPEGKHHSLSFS
BTK, sequence (Q06187 whole entry): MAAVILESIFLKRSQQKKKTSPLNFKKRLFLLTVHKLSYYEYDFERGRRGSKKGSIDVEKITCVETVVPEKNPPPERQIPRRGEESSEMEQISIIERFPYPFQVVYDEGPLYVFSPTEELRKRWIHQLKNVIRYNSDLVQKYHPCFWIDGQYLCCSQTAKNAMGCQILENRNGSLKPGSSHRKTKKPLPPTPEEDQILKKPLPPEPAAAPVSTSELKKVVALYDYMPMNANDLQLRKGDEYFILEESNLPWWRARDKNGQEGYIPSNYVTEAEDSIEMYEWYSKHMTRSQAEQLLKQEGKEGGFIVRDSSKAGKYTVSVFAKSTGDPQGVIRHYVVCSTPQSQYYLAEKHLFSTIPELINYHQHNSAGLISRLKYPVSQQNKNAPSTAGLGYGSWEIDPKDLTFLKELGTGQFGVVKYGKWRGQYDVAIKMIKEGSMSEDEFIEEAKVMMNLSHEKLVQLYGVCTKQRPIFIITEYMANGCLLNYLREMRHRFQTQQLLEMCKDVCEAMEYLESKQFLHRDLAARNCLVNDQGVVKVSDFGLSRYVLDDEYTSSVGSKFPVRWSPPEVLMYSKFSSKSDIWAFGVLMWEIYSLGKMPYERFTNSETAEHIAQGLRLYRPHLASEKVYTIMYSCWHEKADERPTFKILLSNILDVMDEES
FYN, sequence (P06241 whole entry): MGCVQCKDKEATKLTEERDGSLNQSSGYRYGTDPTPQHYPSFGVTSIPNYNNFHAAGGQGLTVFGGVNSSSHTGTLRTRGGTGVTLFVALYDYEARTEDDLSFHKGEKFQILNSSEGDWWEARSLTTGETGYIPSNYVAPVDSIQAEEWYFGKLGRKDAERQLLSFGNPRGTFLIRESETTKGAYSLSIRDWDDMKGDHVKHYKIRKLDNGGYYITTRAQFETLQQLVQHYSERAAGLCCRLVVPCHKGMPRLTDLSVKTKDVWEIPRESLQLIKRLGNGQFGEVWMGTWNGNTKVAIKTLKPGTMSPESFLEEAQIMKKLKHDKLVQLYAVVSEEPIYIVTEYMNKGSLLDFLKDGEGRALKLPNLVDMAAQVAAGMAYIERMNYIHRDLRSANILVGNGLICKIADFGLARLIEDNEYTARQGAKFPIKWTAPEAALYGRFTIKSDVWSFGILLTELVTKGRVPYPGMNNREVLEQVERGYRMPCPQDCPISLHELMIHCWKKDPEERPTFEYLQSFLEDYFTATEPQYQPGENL
CYP1A2, sequence (P05177 whole entry): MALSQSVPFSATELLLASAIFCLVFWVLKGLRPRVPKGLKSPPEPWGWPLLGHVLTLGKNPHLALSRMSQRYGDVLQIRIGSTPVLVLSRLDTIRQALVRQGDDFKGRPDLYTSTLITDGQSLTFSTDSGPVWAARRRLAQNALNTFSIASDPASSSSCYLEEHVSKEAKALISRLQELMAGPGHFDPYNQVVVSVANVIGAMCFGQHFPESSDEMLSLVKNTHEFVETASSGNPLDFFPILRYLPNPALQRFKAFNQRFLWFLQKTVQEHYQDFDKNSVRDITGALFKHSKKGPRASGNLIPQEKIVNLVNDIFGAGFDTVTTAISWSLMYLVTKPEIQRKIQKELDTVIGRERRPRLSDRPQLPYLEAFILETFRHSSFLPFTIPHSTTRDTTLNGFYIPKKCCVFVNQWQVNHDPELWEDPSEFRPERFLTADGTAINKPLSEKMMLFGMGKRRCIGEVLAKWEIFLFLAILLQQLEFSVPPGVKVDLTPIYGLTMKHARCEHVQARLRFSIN
CYP2C8, sequence (P10632 whole entry): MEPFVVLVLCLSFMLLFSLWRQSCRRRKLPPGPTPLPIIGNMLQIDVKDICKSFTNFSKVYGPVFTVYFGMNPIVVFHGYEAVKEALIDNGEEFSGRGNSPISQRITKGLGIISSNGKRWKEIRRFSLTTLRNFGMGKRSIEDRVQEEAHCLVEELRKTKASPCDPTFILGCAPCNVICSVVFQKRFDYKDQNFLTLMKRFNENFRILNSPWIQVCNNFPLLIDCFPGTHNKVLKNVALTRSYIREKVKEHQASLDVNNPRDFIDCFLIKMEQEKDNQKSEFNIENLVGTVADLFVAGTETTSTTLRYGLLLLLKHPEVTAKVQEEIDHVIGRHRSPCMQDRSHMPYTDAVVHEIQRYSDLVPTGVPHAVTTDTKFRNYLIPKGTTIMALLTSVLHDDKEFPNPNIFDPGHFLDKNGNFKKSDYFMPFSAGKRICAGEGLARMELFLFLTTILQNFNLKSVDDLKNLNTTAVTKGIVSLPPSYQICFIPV
FGFR3, sequence (P22607 23-806): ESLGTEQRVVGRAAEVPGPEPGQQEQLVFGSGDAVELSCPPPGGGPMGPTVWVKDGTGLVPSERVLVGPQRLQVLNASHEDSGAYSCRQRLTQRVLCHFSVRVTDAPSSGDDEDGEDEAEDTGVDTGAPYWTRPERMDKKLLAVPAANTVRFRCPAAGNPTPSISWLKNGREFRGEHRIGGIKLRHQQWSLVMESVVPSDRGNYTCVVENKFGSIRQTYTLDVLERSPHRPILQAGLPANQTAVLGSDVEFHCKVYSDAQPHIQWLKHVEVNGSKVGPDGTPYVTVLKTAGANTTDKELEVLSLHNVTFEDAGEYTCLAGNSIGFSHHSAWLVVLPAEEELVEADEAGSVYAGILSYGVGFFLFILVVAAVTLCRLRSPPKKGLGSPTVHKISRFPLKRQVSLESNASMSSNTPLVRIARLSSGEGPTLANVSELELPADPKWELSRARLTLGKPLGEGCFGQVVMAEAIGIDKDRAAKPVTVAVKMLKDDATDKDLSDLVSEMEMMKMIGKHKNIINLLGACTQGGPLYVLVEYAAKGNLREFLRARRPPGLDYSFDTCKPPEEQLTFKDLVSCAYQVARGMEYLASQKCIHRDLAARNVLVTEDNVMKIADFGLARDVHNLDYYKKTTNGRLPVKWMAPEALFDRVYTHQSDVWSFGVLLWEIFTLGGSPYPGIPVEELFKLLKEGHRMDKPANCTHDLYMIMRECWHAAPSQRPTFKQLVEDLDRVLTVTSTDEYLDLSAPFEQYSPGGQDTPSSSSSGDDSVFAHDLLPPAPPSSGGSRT
CYP2C9, sequence (P11712 whole entry): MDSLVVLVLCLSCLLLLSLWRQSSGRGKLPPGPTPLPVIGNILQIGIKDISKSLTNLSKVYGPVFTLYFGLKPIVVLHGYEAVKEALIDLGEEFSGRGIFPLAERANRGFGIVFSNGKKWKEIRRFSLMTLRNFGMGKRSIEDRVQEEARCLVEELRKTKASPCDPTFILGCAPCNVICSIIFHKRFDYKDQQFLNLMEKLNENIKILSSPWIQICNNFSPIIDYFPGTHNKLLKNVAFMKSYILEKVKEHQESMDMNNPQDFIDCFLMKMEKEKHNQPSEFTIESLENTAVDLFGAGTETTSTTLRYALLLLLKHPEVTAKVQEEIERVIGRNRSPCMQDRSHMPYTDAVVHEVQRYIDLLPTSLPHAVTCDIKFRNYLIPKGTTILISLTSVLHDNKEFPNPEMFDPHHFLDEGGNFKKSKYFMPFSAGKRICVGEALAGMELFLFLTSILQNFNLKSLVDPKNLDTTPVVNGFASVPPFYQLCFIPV

Structure (SMILES): COC/C=C/C(=O)N1CC[C@@H](n2nc(-c3ccc(Oc4ccccc4)cc3)c(C(N)=O)c2N)C1 [SY-1530]
- Ratio, JAK3 ([1]; IC50 SY-1530 over IC50 ibrutinib): > 27
- IC50 ([1]; read-out: IC50 (nM), JAK3, HTRF): > 10000 nM
- Ratio = Papp BL→AP/Papp AP→BL ([2]; Caco-2, 0.1 μM): 2.46
- Ratio = Papp BL→AP/Papp AP→BL ([2]; Caco-2, 1 μM): 2.58
- Ratio = Papp BL→AP/Papp AP→BL ([2]; Caco-2, 10 μM): 2.92
- Inhibition (%), FYN [3]: 87%
- Inhibition (%), FGFR3 [4]: 25%
- Inhibition (%), YES1 [5]: 94%
- IC50 [6]: > 25 µM
- IC50 [7]: > 25 µM
- IC50 [8]: > 25 µM
- Up-regulation of CD69 in T cells ([9]; after washout of BTK inhibitors): not affected
- CD69 up-regulation after T cell receptor stimulation ([9]; continuous exposure, 10 µM): slightly inhibited
- Incubation time to saturation of covalent binding to BTK kinase [10]: 30 min
- Decrease of free inhibitor after incubation with BTK ([10]; 4 h incubation): more than 80%
